Measured values reported in patent publication US20240238228A1, “COMPOSITIONS AND METHODS FOR TREATING ALLERGIES AND INFLAMMATORY CONDITIONS” (UNIVERSITY OF PITTSBURGH-OF THE COMMONWEALTH SYSTEM OF …, priority 2021, published 2024).
No end group written: not given here.

How the values were obtained:
IL-10 = IL-10 degradation assays on BMMC supernatants; format: cell-based, murine; details: supernatants collected 10 min after activation, pulsed with Ac-calpastatin 30 min
Protocol: To detect early IL-10 release, 4×10^6 cells were incubated in serum free RPMI for a minimum of three hours prior to IgE loading and activation with DNP-HSA (100 ng/mL). Supernatants were collected and IL-10 was detected in accord with manufacturer's recommendations using 1.0% BSA to block and a top standard of 250 pg/mL. The lower limit of detection was 7.8 pg/mL. To evaluate the role of relationship between calpain and IL-10, cell-free supernatants were collected 10 min after activation and incubated with Ac-calpastatin (Ac-Cal; 20 μg/mL, Cayman) or vehicle control. […] To directly test IL-10 proteolysis, MCs were activated for 45 min, cell free supernatants were collected and pulsed with recombinant IL-10 (Biolegend, 250 pg/mL).

calpain = experiment: Calpain inhibition in cell-free BMMC supernatants pulsed with inhibitor; format: biochemical, murine; details: Ac-calpastatin 20 μg/mL, 30 min; mean±SEM from n=3
Protocol: (§1) Calpain activity was detected from cell-free supernatants using the Calpain-Glo Protease Assay (Promega). Supernatants were incubated with substrate for 10 min prior to luminescent detection. In some experiments, glyburide or vehicle (0.1% DMSO) were added to cells 10 min prior to Ag. ELISA kits from eBioscience (IL-13), BioLegend, (TNF and IL-10) or RayBiotech (NKA) and used in accord with the manufacturer's recommendations.
To detect early IL-10 release, 4×10^6 cells were incubated in serum free RPMI for a minimum of three hours prior to IgE loading and activation with DNP-HSA (100 ng/mL). Supernatants were collected and IL-10 was detected in accord with manufacturer's recommendations using 1.0% BSA to block and a top standard of 250 pg/mL. The lower limit of detection was 7.8 pg/mL. To evaluate the role of relationship between calpain and IL-10, cell-free supernatants were collected 10 min after activation and incubated with Ac-calpastatin (Ac-Cal; 20 μg/mL, Cayman) or vehicle control. Ac-Cal containing supernatants were further incubated for 30 min prior to IL-10 quantification by ELISA. To directly test IL-10 proteolysis, MCs were activated for 45 min, cell free supernatants were collected and pulsed with recombinant IL-10 (Biolegend, 250 pg/mL).

peanut allergy = experiment: Peanut allergy desensitization by microneedle arrays; format: in vivo, mouse; details: mouse, in vivo
IL-33 = details: mouse, in vivo
MCs = details: previous studies; cited from earlier work
[1] = biological target: calpain released into cell-free supernatants by IgE-activated murine BMMCs (murine) (UniProt O35350); experiment: cell-based or functional assay
recombinant murine IL-10 = experiment: Degradation of recombinant IL-10 by purified calpain (Western blot); format: biochemical; details: rIL-10 incubated with increasing concentrations of purified calpain, 60 min
Protocol: The IL-10 degrading capacity of calpain, recombinant murine IL-10 (Peprotech) was incubated with human calpain I (Athens Research and Technology) for 60 min at 37° C., then denatured with Laemelli Buffer (BioRad) and resolved on 10% Tris-Glycine SDS-PAGE gels (BioRad). Proteins were transferred to […] PVDF membranes (BioRad), blocked for 1 h with Odyssey Blocking Buffer (LI-COR) and probed overnight with goat anti-mouse IL-10 antibody (RnD Systems). Ant-IL10 was detected with donkey anti-goat 800CW (LI-COR) and visualized on a LI-COR Imaging System. Densitometry was calculated using ImageStudioLite v5.2.5 (Licor). Values are presented as (rIL-10+calpain)/rIL-10 alone)*100.

NKA = NKA in skin homogenates by ELISA; format: in vivo, mouse; details: IL-10 1.0 ng/ear; without PCA induction
Protocol: as §1
Mouse ears were measured with a micrometer then sensitized with IgE in filter-sterilized PBS (Sigma, clone SPE-7, 20 ng/50 μl/ear) or vehicle control. Twenty-four hours later mice were treated with NKA (10 μg/ear, intradermal) or vehicle (PBS) 3 h prior to Ag (DNP-HSA 100 μg, in 200 μl, intravenous in saline) administration. Data are presented as change in ear thickness between baseline and the indicated time. Where indicated, mice were treated with recombinant murine IL-10 (Peprotech, 1.0 ng/ear) at the time of IgE injection or treated with glyburide (2.5 mg/kg, i.p), 3 h prior to Ag administration.
Cytokine expression in the skin was investigated 24 h after PCA induction. […] Protein concentrations were quantified using the BCA Protein Assay (Pierce). […] Densitometry values subtracting the median background from individual spot areas were calculated with ImageStudioLite v5.2.5. […]

Ac-calpastatin: a calpain inhibitor (Cayman) (Ac-DPMSSTYIEELGKREVTIPPKYRELLA; not fully specified (C-terminus)) [reference compound]
IL-10 levels in supernatants from IgE-activated BMMCs (IL-10): partially restored
inhibition of calpain activity (calpain): 20.1±1.72%

botulinum toxin A
allergy to peanut allergen after CPE challenge (peanut allergy): desensitizes
IL-33 expression in skin (IL-33): reduces IL-33 expression

NKA(4-10): a naturally truncated form of NKA [reference compound]
effect on MCs (β-hexosaminidase or histamine release as readouts) (MCs): no effect

Ac-calpastatin (Cayman) (from UniProt P20810 184-210) (peptide)
calpain activity [1]: 20.1%

B1: calpain: purified human calpain I (Athens Research and Technology), IL-10 degrading cysteine protease (protein)
chain: SEEIITPVYCTGVSAQVQKQRARELGLGRHENAIKYLGQDYEQLRVRCLQSGTLFRDEAFPPVPQSLGYKDLGPNSSKTYGIKWKRPTELLSNPQFIVDGATRTDICQGALGDCWLLAAIASLTLNDTLLHRVVPHGQSFQNGYAGIFHFQLWQFGEWVDVVVDDLLPIKDGKLVFVHSAEGNEFWSALLEKAYAKVNGSYEALSGGSTSEGFEDFTGGVTEWYELRKAPSDLYQIILKALERGSLLGCSIDISSVLDMEAITFKKLVKGHAYSVTGAKQVNYRGQVVSLIRMRNPWGEVEWTGAWSDSSSEWNNVDPYERDQLRVKMEDGEFWMSFRDFMREFTRLEICNLTPDALKSRTIRKWNTTLYEGTWRRGSTAGGCRNYPATFWVNPQFKIRLDETDDPDDYGDRESGCSFVLALMQKHRRRERRFGRDMETIGFAVYEVPPELVGQPAVHLKRDFFLANASRARSEQFINLREVSTRFRLPPGEYVVVPSTFEPNKEGDFVLRFFSEKSAGTVELDDQIQANLPDEQVLSEEEIDENFKALFRQLAGEDMEISVKELRTILNRIISKHKDLRTKGFSLESCRSMVNLMDRDGNGKLGLVEFNILWNRIRNYLSIFRKFDLDKSGSMSAYEMRMAIESAGFKLNKKLYELIITRYSEPDLAVDFDNFVCCLVRLETMFRFFKTLDTDLDGVVTFDLFKWLQLTMFA
amount of IL-10 detected by Western blot (recombinant murine IL-10): inversely proportional to calpain concentration

B2: recombinant IL-10: recombinant murine IL-10 (Peprotech) (protein)
chain: SRGQYSREDNNCTHFPVGQSHMLLELRTAFSQVKTFFQTKDQLDNILLTDSLMQDFKGYLGCQALSEMIQFYLVEVMPQAEKHGPEIKEHLNSLGEKLKTLRMRLRRCHRFLPCENKSKAVEQVKSDFNKLQDQGVYKAMNEFDIFINCIEAYMMIKMKS
steady state NKA in skin homogenates (NKA): significantly increased
